Measured values as given in the supplement of paper PMC10307832.

Experiments:
Test in all cases: relative viability (nuclei count vs DMSO), 5 days (fraction); higher = more cells survive
[1] = test system: ABC-1
Outline: (§1)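 Medians of duplicate plates are given as relative viability. That measure is the nuclei count in treated wells divided by the count in vehicle wells. Counts were taken on 4× images of lung cancer cell lines in 1536-well plates, 5 days after pin-tool dosing the day after seeding with one drug alone or a fixed anchor-drug dose plus five library-drug doses (not always all listed) in √10 steps.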

[2] = test system: CAL-12T
Outline: as §1

[3] = test system: COR-L 105
Outline: as §1

[4] = test system: ChaGo-K-1
Outline: as §1

[5] = test system: EMC-BAC-2
Outline: as §1

[6] = test system: EPLC-272H
Outline: as §1

[7] = test system: HCC-15
Outline: as §1

[8] = test system: HCC-78
Outline: as §1

[9] = test system: HOP-62
Outline: as §1

[10] = test system: LXF-289
Outline: as §1

[11] = test system: NCI-H1666
Outline: as §1

[12] = test system: NCI-H1755
Outline: as §1

[13] = test system: NCI-H1915
Outline: as §1

[14] = test system: NCI-H1975
Outline: as §1

[15] = test system: NCI-H2023
Outline: as §1

[16] = test system: NCI-H2085
Outline: as §1

[17] = test system: NCI-H2126
Outline: as §1

[18] = test system: NCI-H3122
Outline: as §1

[19] = test system: NCI-H322M
Outline: as §1

[20] = test system: NCI-H358
Outline: as §1

[21] = test system: NCI-H441
Outline: as §1

[22] = test system: UMC-11
Outline: as §1

SMILES: COc1nc(C)cnc1NS(=O)(=O)c1cccnc1-c1ccc(-c2nnco2)cc1 [Zibotentan] + Cc1cc(Nc2cc(N3CCN(C)CC3)nc(Sc3ccc(NC(=O)C4CC4)cc3)n2)n[nH]1 [Tozasertib] (partner 0.1 µM)
- relative viability ([1]; first compound 0.08 µM): 0.175
- relative viability ([1]; first compound 0.253 µM): 0.163
- relative viability ([1]; first compound 0.8 µM): 0.193
- relative viability ([1]; first compound 2.53 µM): 0.201
- relative viability ([2]; first compound 0.08 µM): 0.268
- relative viability ([2]; first compound 0.253 µM): 0.289
- relative viability ([2]; first compound 0.8 µM): 0.351
- relative viability ([2]; first compound 2.53 µM): 0.31
- relative viability ([3]; first compound 0.08 µM): 0.309
- relative viability ([3]; first compound 0.253 µM): 0.344
- relative viability ([3]; first compound 0.8 µM): 0.371
- relative viability ([3]; first compound 2.53 µM): 0.362
- relative viability ([4]; first compound 0.08 µM): 0.208
- relative viability ([4]; first compound 0.253 µM): 0.218
- relative viability ([4]; first compound 0.8 µM): 0.21
- relative viability ([4]; first compound 2.53 µM): 0.24
- relative viability ([5]; first compound 0.08 µM): 0.286
- relative viability ([5]; first compound 0.8 µM): 0.293
- relative viability ([5]; first compound 2.53 µM): 0.274
- relative viability ([6]; first compound 0.08 µM): 0.264
- relative viability ([6]; first compound 0.253 µM): 0.234
- relative viability ([6]; first compound 0.8 µM): 0.331
- relative viability ([6]; first compound 2.53 µM): 0.281
- relative viability ([7]; first compound 0.08 µM): 0.481
- relative viability ([7]; first compound 0.253 µM): 0.314
- relative viability ([7]; first compound 0.8 µM): 0.373
- relative viability ([7]; first compound 2.53 µM): 0.402
- relative viability ([8]; first compound 0.08 µM): 0.526
- relative viability ([8]; first compound 0.253 µM): 0.393
- relative viability ([8]; first compound 0.8 µM): 0.306
- relative viability ([8]; first compound 2.53 µM): 0.435
- relative viability ([9]; first compound 0.08 µM): 0.333
- relative viability ([9]; first compound 0.253 µM): 0.371
- relative viability ([9]; first compound 0.8 µM): 0.428
- relative viability ([9]; first compound 2.53 µM): 0.359
- relative viability ([10]; first compound 0.08 µM): 0.212
- relative viability ([10]; first compound 0.253 µM): 0.161
- relative viability ([10]; first compound 0.8 µM): 0.227
- relative viability ([10]; first compound 2.53 µM): 0.225
- relative viability ([11]; first compound 0.08 µM): 0.582
- relative viability ([11]; first compound 0.253 µM): 0.593
- relative viability ([11]; first compound 0.8 µM): 0.784
- relative viability ([11]; first compound 2.53 µM): 0.646
- relative viability ([12]; first compound 0.08 µM): 0.475
- relative viability ([12]; first compound 0.253 µM): 0.58
- relative viability ([12]; first compound 0.8 µM): 0.602
- relative viability ([12]; first compound 2.53 µM): 0.657
- relative viability ([13]; first compound 0.08 µM): 0.453
- relative viability ([13]; first compound 0.253 µM): 0.409
- relative viability ([13]; first compound 0.8 µM): 0.428
- relative viability ([13]; first compound 2.53 µM): 0.417
- relative viability ([14]; first compound 0.08 µM): 0.732
- relative viability ([14]; first compound 0.253 µM): 0.695
- relative viability ([14]; first compound 0.8 µM): 0.727
- relative viability ([14]; first compound 2.53 µM): 0.831
- relative viability ([15]; first compound 0.08 µM): 0.356
- relative viability ([15]; first compound 0.253 µM): 0.254
- relative viability ([15]; first compound 0.8 µM): 0.298
- relative viability ([15]; first compound 2.53 µM): 0.387
- relative viability ([16]; first compound 0.08 µM): 0.788
- relative viability ([16]; first compound 0.253 µM): 0.698
- relative viability ([16]; first compound 0.8 µM): 0.703
- relative viability ([16]; first compound 2.53 µM): 0.821
- relative viability ([17]; first compound 0.08 µM): 0.891
- relative viability ([17]; first compound 0.8 µM): 0.813
- relative viability ([17]; first compound 2.53 µM): 0.875
- relative viability ([18]; first compound 0.08 µM): 0.399
- relative viability ([18]; first compound 0.8 µM): 0.361
- relative viability ([18]; first compound 2.53 µM): 0.413
- relative viability ([19]; first compound 0.08 µM): 0.464
- relative viability ([19]; first compound 0.253 µM): 0.479
- relative viability ([19]; first compound 0.8 µM): 0.496
- relative viability ([19]; first compound 2.53 µM): 0.534
- relative viability ([20]; first compound 0.08 µM): 0.0974
- relative viability ([20]; first compound 0.253 µM): 0.099
- relative viability ([20]; first compound 0.8 µM): 0.0954
- relative viability ([20]; first compound 2.53 µM): 0.0945
- relative viability ([21]; first compound 0.08 µM): 0.633
- relative viability ([21]; first compound 0.253 µM): 0.545
- relative viability ([21]; first compound 0.8 µM): 0.728
- relative viability ([21]; first compound 2.53 µM): 0.592
- relative viability ([22]; first compound 0.08 µM): 0.23
- relative viability ([22]; first compound 0.253 µM): 0.204
- relative viability ([22]; first compound 0.8 µM): 0.201
- relative viability ([22]; first compound 2.53 µM): 0.203

SMILES: COc1nc(C)cnc1NS(=O)(=O)c1cccnc1-c1ccc(-c2nnco2)cc1 [Zibotentan] + Cc1nc(Nc2ncc(C(=O)Nc3c(C)cccc3Cl)s2)cc(N2CCN(CCO)CC2)n1 [Dasatinib] (partner 0.075 µM)
- relative viability ([1]; first compound 0.08 µM): 0.568
- relative viability ([1]; first compound 0.253 µM): 0.572
- relative viability ([1]; first compound 0.8 µM): 0.548
- relative viability ([1]; first compound 2.53 µM): 0.556
- relative viability ([2]; first compound 0.08 µM): 0.484
- relative viability ([2]; first compound 0.253 µM): 0.473
- relative viability ([2]; first compound 0.8 µM): 0.34
- relative viability ([2]; first compound 2.53 µM): 0.479
- relative viability ([3]; first compound 0.08 µM): 0.32
- relative viability ([3]; first compound 0.253 µM): 0.353
- relative viability ([3]; first compound 0.8 µM): 0.381
- relative viability ([3]; first compound 2.53 µM): 0.405
- relative viability ([4]; first compound 0.08 µM): 0.604
- relative viability ([4]; first compound 0.253 µM): 0.646
- relative viability ([4]; first compound 0.8 µM): 0.498
- relative viability ([4]; first compound 2.53 µM): 0.626
- relative viability ([5]; first compound 0.08 µM): 0.338
- relative viability ([5]; first compound 0.8 µM): 0.295
- relative viability ([5]; first compound 2.53 µM): 0.369
- relative viability ([6]; first compound 0.08 µM): 0.375
- relative viability ([6]; first compound 0.253 µM): 0.287
- relative viability ([6]; first compound 0.8 µM): 0.331
- relative viability ([6]; first compound 2.53 µM): 0.33
- relative viability ([7]; first compound 0.08 µM): 0.601
- relative viability ([7]; first compound 0.8 µM): 0.512
- relative viability ([7]; first compound 2.53 µM): 0.684
- relative viability ([8]; first compound 0.08 µM): 0.513
- relative viability ([8]; first compound 0.253 µM): 0.313
- relative viability ([8]; first compound 0.8 µM): 0.391
- relative viability ([8]; first compound 2.53 µM): 0.309
- relative viability ([9]; first compound 0.08 µM): 0.706
- relative viability ([9]; first compound 0.253 µM): 0.634
- relative viability ([9]; first compound 0.8 µM): 0.719
- relative viability ([9]; first compound 2.53 µM): 0.758
- relative viability ([10]; first compound 0.08 µM): 0.247
- relative viability ([10]; first compound 0.253 µM): 0.22
- relative viability ([10]; first compound 0.8 µM): 0.206
- relative viability ([10]; first compound 2.53 µM): 0.244
- relative viability ([11]; first compound 0.08 µM): 0.883
- relative viability ([11]; first compound 0.253 µM): 0.706
- relative viability ([11]; first compound 0.8 µM): 0.821
- relative viability ([11]; first compound 2.53 µM): 0.907
- relative viability ([12]; first compound 0.08 µM): 0.433
- relative viability ([12]; first compound 0.253 µM): 0.413
- relative viability ([12]; first compound 0.8 µM): 0.4
- relative viability ([12]; first compound 2.53 µM): 0.473
- relative viability ([13]; first compound 0.08 µM): 0.382
- relative viability ([13]; first compound 0.253 µM): 0.29
- relative viability ([13]; first compound 0.8 µM): 0.336
- relative viability ([13]; first compound 2.53 µM): 0.29
- relative viability ([14]; first compound 0.08 µM): 0.378
- relative viability ([14]; first compound 0.253 µM): 0.341
- relative viability ([14]; first compound 0.8 µM): 0.307
- relative viability ([14]; first compound 2.53 µM): 0.376
- relative viability ([15]; first compound 0.08 µM): 0.568
- relative viability ([15]; first compound 0.253 µM): 0.339
- relative viability ([15]; first compound 0.8 µM): 0.476
- relative viability ([15]; first compound 2.53 µM): 0.64
- relative viability ([16]; first compound 0.08 µM): 0.24
- relative viability ([16]; first compound 0.253 µM): 0.227
- relative viability ([16]; first compound 0.8 µM): 0.211
- relative viability ([16]; first compound 2.53 µM): 0.213
- relative viability ([17]; first compound 0.08 µM): 0.632
- relative viability ([17]; first compound 0.8 µM): 0.53
- relative viability ([17]; first compound 2.53 µM): 0.685
- relative viability ([18]; first compound 0.08 µM): 0.807
- relative viability ([18]; first compound 0.253 µM): 0.817
- relative viability ([18]; first compound 0.8 µM): 0.701
- relative viability ([18]; first compound 2.53 µM): 0.751
- relative viability ([19]; first compound 0.08 µM): 0.235
- relative viability ([19]; first compound 0.253 µM): 0.245
- relative viability ([19]; first compound 0.8 µM): 0.27
- relative viability ([19]; first compound 2.53 µM): 0.269
- relative viability ([20]; first compound 0.08 µM): 0.175
- relative viability ([20]; first compound 0.253 µM): 0.152
- relative viability ([20]; first compound 0.8 µM): 0.151
- relative viability ([20]; first compound 2.53 µM): 0.166
- relative viability ([21]; first compound 0.08 µM): 0.715
- relative viability ([21]; first compound 0.253 µM): 0.476
- relative viability ([21]; first compound 0.8 µM): 0.679
- relative viability ([21]; first compound 2.53 µM): 0.677
- relative viability ([22]; first compound 0.08 µM): 0.394
- relative viability ([22]; first compound 0.253 µM): 0.436
- relative viability ([22]; first compound 0.8 µM): 0.475
- relative viability ([22]; first compound 2.53 µM): 0.469
